Here are results for 15 compounds from patent US12319663B2, “Alkene-containing amide compound and application thereof” (SHENYANG SINOCHEM AGROCHEMICALS R&D CO., LTD., priority 2019, dated 2025).

Format in all cases: in vivo
The test system of one test is barnyard grass. In words: Herbicidal activity, post-emergence stem and leaf spray, greenhouse: barnyard grass control. How it is done: (§1) Seeds of broadleaf weeds (zinnia and piemarker) or grassy weeds (green bristlegrass and barnyard grass) are respectively sown in a paper cup having a diameter of 7 cm and containing nutrient soil; after sowing, the seeds are covered with 1 cm of soil; the soil is pressed and watered, and then the seeds are cultivated in a greenhouse according to a conventional method; and stems and leaves are sprayed after 2-3 leaf stage of the weeds.
(§2) After the original medicinal acetone was dissolved, the test requires to use 1% of Tween 80 to stand in running water to prepare the solution to be tested with a required concentration. According to the design dose of the test, spray treatment was carried out on a track-type crop sprayer (designed and produced by British Engineer Research Ltd.) (spray pressure is 1.95 kg/cm^2, spray volume is 50 L/hm^2 and track speed is 1.48 km/h). The test was repeated for three times. The test material was treated and then placed in an operation hall. The medicinal liquid was naturally dried in the shade, and then was placed in a greenhouse and managed according to the conventional method, The response of the weeds to the drug was observed and recorded, After treatment, the control effects of the test drug on the weeds were visually inspected regularly, expressed by 0-100%. “0” represents no control effect and “100%” represents complete killing.
According to the above test method, part of the compounds of the formula I and KC are selected for the activity test of controlling the barnyard grass.

A further test concerns zinnia. In words: Herbicidal activity, post-emergence stem and leaf spray, greenhouse: zinnia control. The conditions noted are these: visual, 0 = no control effect, 100% = complete killing. As for the experimental part: as §1, §2
According to the above test method, part of the compounds of the formula I and KC are selected for activity test of controlling the zinnia.

A further test relates to piemarker. Briefly: Herbicidal activity, post-emergence stem and leaf spray, greenhouse: piemarker control. How it is done: as §1, §2
According to the above test method, part of the compounds of the formula I and KC are selected for activity test of controlling the piemarker. […]

In a further test the test system is green bristlegrass. Briefly: Herbicidal activity, post-emergence stem and leaf spray, greenhouse: green bristlegrass control. As for the experimental part:
as §1, §2
According to the above test method, part of the compounds of the formula I and KC are selected for the activity test of controlling the green bristlegrass.

[1] abbreviates: dose 37.5 g a.i./hm2, post-emergence stem and leaf spray.
[2] abbreviates: dose 150 g a.i./hm2, post-emergence stem and leaf spray.
Setting [3] is: dose 600 g a.i./hm2, post-emergence stem and leaf spray.

As to `Cc1c(C(=O)N(C(=O)/C=C/c2ccccc2)c2nnnn2C)ccc(S(C)(=O)=O)c1OCC1CCCO1` (stereo not drawn) [Compound 1-100], the “Barnyard grass control activity (after emergence, control effect %)” value in the test with barnyard grass (setting [1]), in the test on barnyard grass (setting [2]) and in the test with barnyard grass (setting [3]) was 100% throughout.

For the compound `Cn1nnnc1N(C(=O)C1=CCCCC1)C(=O)c1ccc(C(F)(F)F)cc1S(C)(=O)=O` [Compound 2-265], the entries for the “Zinnia control activity (after emergence, control effect %)” value in the test with zinnia (dose 37.5 g a.i./hm^2), in the test on zinnia (dose 150 g a.i./hm^2) and in the test on zinnia (dose 600 g a.i./hm^2) were 95%, 100% and 100%, respectively. The “Piemarker control activity (after emergence, control effect %)” value in the test on piemarker (setting [1]) is recorded as 90%; with piemarker (setting [2]), 95%; in the test on piemarker (setting [3]), 95%. The results for the “Green bristlegrass control activity (after emergence, control effect %)” value with green bristlegrass (setting [1]), in the test on green bristlegrass (setting [2]) and in the test on green bristlegrass (setting [3]) were 80%, 90% and 95%, respectively. The “Barnyard grass control activity (after emergence, control effect %)” value with barnyard grass (setting [1]), in the test on barnyard grass (setting [2]) and in the test on barnyard grass (setting [3]) was 95% throughout.

Take `COCc1c(S(C)(=O)=O)ccc(C(=O)N(C(=O)/C=C/c2ccccc2)c2nnnn2C)c1Cl` [Compound 1-24]: the “Zinnia control activity (after emergence, control effect %)” value in the test with zinnia (dose 37.5 g a.i./hm^2), in the test on zinnia (dose 150 g a.i./hm^2) and in the test with zinnia (dose 600 g a.i./hm^2) was 100% each time. In addition, the “Piemarker control activity (after emergence, control effect %)” value in the test with piemarker (setting [1]), in the test with piemarker (setting [2]) and in the test with piemarker (setting [3]) was 100% in each case. The “Barnyard grass control activity (after emergence, control effect %)” value in the test on barnyard grass (setting [1]) is reported as 95%; with barnyard grass (setting [2]) it was 95%; in the test with barnyard grass (setting [3]), 100%.

As to `COCc1c(S(C)(=O)=O)ccc(C(=O)N(C(=O)C2=CCCC2)c2nnnn2C)c1Cl` [Compound 2-105], the “Barnyard grass control activity (after emergence, control effect %)” value in the test on barnyard grass (setting [1]) is listed as 90%; with barnyard grass (setting [2]) it was 90%; with barnyard grass (setting [3]) it was 100%.

As for `Cc1c(S(C)(=O)=O)ccc(C(=O)N(C(=O)/C=C/c2ccccc2)c2nnnn2C)c1Cl` [Compound 1-19], the “Zinnia control activity (after emergence, control effect %)” value worked out at 95% in the test on zinnia (dose 37.5 g a.i./hm^2), 95% with zinnia (dose 150 g a.i./hm^2) and 100% with zinnia (dose 600 g a.i./hm^2). The entries for the “Piemarker control activity (after emergence, control effect %)” value in the test with piemarker (setting [1]), in the test with piemarker (setting [2]) and in the test on piemarker (setting [3]) were 90%, 90% and 98%, respectively.

Regarding `Cc1c(C(=O)N(C(=O)C2=CCCCC2)c2nnnn2C)ccc(S(C)(=O)=O)c1OCC(F)(F)F` [Compound 2-13], the “Zinnia control activity (after emergence, control effect %)” value in the test with zinnia (dose 37.5 g a.i./hm^2), with zinnia (dose 150 g a.i./hm^2) and with zinnia (dose 600 g a.i./hm^2) was 100% in each case. For the same compound, the “Barnyard grass control activity (after emergence, control effect %)” value stood at 80% with barnyard grass (setting [1]), 100% in the test with barnyard grass (setting [2]) and 100% in the test on barnyard grass (setting [3]).

For the compound `Cn1nnnc1N(C(=O)/C=C/c1ccccc1)C(=O)c1ccc(C(F)(F)F)cc1S(C)(=O)=O` [Compound 1-1], the “Zinnia control activity (after emergence, control effect %)” value in the test with zinnia (dose 37.5 g a.i./hm^2), with zinnia (dose 150 g a.i./hm^2) and with zinnia (dose 600 g a.i./hm^2) was 100% in each case. The “Piemarker control activity (after emergence, control effect %)” value with piemarker (setting [1]), in the test with piemarker (setting [2]) and in the test with piemarker (setting [3]) was 100% each time.

For the compound `Cn1nnnc1N(C(=O)C1=CCCCC1)C(=O)c1ccc(S(C)(=O)=O)cc1Cl` [Compound 2-269], the “Piemarker control activity (after emergence, control effect %)” value in the test with piemarker (setting [1]) came out at 90%; with piemarker (setting [2]), 95%; with piemarker (setting [3]) it was 100%. Also, the “Barnyard grass control activity (after emergence, control effect %)” value was found to be 80% in the test on barnyard grass (setting [1]), 90% in the test on barnyard grass (setting [2]) and 95% in the test on barnyard grass (setting [3]).

Take `COCc1c(S(C)(=O)=O)ccc(C(=O)N(C(=O)C2CC=CC2)c2nnnn2C)c1Cl` [Compound 2-106]: the “Zinnia control activity (after emergence, control effect %)” value in the test with zinnia (dose 37.5 g a.i./hm^2), with zinnia (dose 150 g a.i./hm^2) and with zinnia (dose 600 g a.i./hm^2) was 100% each time.

As to `Cc1c(C(=O)N(C(=O)C2=CCCC2)c2nnnn2C)ccc(S(C)(=O)=O)c1OCC(F)(F)F` [Compound 2-15], the “Zinnia control activity (after emergence, control effect %)” value in the test with zinnia (dose 37.5 g a.i./hm^2), in the test on zinnia (dose 150 g a.i./hm^2) and in the test on zinnia (dose 600 g a.i./hm^2) was 100% each time. Besides, the “Green bristlegrass control activity (after emergence, control effect %)” value with green bristlegrass (setting [1]) is given as 90%; with green bristlegrass (setting [2]), 100%; in the test with green bristlegrass (setting [3]), 100%. The “Barnyard grass control activity (after emergence, control effect %)” value with barnyard grass (setting [1]) came to 85%; in the test with barnyard grass (setting [2]), 100%; in the test with barnyard grass (setting [3]), 100%.

`CCCOc1c(S(C)(=O)=O)ccc(C(=O)N(C(=O)/C=C/c2ccccc2)c2nnnn2C)c1C` [Compound 1-296]: the “Barnyard grass control activity (after emergence, control effect %)” value with barnyard grass (setting [1]), in the test on barnyard grass (setting [2]) and in the test with barnyard grass (setting [3]) was 100% throughout.

In the case of `COCCOc1c(S(C)(=O)=O)ccc(C(=O)N(C(=O)C2=CCCCC2)c2nnnn2C)c1C` [Compound 2-19], the “Barnyard grass control activity (after emergence, control effect %)” value in the test with barnyard grass (setting [1]) is listed as 90%; in the test with barnyard grass (setting [2]), 100%; with barnyard grass (setting [3]) it was 100%.

In the case of `COCCOCc1c(S(C)(=O)=O)ccc(C(=O)N(C(=O)C2=CCCCC2)c2nnnn2C)c1Cl` [Compound 2-270], the “Piemarker control activity (after emergence, control effect %)” value turned out to be 90% in the test with piemarker (setting [1]), 98% with piemarker (setting [2]) and 100% with piemarker (setting [3]). For the same compound, the “Green bristlegrass control activity (after emergence, control effect %)” value in the test on green bristlegrass (setting [1]) is reported as 90%; with green bristlegrass (setting [2]), 95%; in the test with green bristlegrass (setting [3]) it was 98%. For the same compound, the “Barnyard grass control activity (after emergence, control effect %)” value in the test on barnyard grass (setting [1]) was 90%; with barnyard grass (setting [2]), 95%; in the test on barnyard grass (setting [3]), 100%.

As for `Cn1nnnc1N(C(=O)/C=C/c1ccc2c(c1)OCO2)C(=O)c1ccc(C(F)(F)F)cc1S(C)(=O)=O` [Compound 1-8], the “Zinnia control activity (after emergence, control effect %)” value with zinnia (dose 37.5 g a.i./hm^2) was 90%; in the test on zinnia (dose 150 g a.i./hm^2), 95%; with zinnia (dose 600 g a.i./hm^2), 100%. The “Piemarker control activity (after emergence, control effect %)” value with piemarker (setting [1]), in the test with piemarker (setting [2]) and with piemarker (setting [3]) was 100% throughout.

For the compound `COc1c(S(C)(=O)=O)ccc(C(=O)N(C(=O)/C=C/c2ccccc2)c2nnnn2C)c1C` [Compound 1-95], the “Zinnia control activity (after emergence, control effect %)” value with zinnia (dose 37.5 g a.i./hm^2), in the test on zinnia (dose 150 g a.i./hm^2) and in the test with zinnia (dose 600 g a.i./hm^2) was 100% each time.
